According to patent US7795255B2, “Rigidified compounds for modulating heparanase activity” (InSight Biopharmaceuticals Ltd., priority 2005, dated 2010):

Columns and labels:
[1] = molecular target: T1, vascular endothelial growth factor (VEGF) (Homo sapiens, UniProt P15692); assay: ELISA for determination of binding of VEGF to heparin; settings: for IC50: inhibition of VEGF binding to heparin, NI = no inhibition; for inhibition of VEGF binding to heparin: inhibition towards both growth factors
T1 sequence (P15692 27-191 isoform P15692-4): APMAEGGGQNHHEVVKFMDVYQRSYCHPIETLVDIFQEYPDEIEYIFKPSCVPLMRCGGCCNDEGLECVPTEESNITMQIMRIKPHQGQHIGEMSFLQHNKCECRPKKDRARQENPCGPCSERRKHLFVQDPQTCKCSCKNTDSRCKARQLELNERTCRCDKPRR
Experimental: Enzyme-linked immunosorbent assay (ELISA) for determination of binding of vascular endothelial growth factor (VEGF) to heparin: 96-well microplates were coated for 2 hours. at 23-25° C. with 5 μg/ml heparin-albumin (Rimon Biotech) and blocked with 1% bovine serum albumin (BSA) in phosphate buffer (PBS) with 0.05% Tween and 0.01% thimerosal for 2 hours. VEGF was added to the plates at a concentration of 10 ng/ml and the plates were thereafter incubated for 45 minutes at 23-25° C. The amount of VEGF bound to heparin was detected using anti-VEGF monoclonal antibody (Sigma Cat. No. V4758) at a concentration of 0.26 μg/ml and secondary antibodies Sheep anti-mouse IgG linked to horseradish peroxidase (1:2000) using 3,3′,5,5′-tetramethylbenzidine (TMB, Pierce Cat. No. 34021) as a substrate for peroxidase. The plates were read at 450 nm with a reference wavelength of 630 nm using a VERSAmax plate reader. […] Percent inhibition was calculated as compared with a control pre-incubated with a solution of 1% DMSO and the results are presented in Table 3 below.

[2] = molecular target: T2, recombinant human pro-heparanase (H60) (Homo sapiens, UniProt Q9Y251); assay: Pro-heparanase (H60) activation in a cell-based assay; settings: inhibition of pro-heparanase activation in CHO cells; NI = no inhibition
T2 construct: Heparanase maturation involves the removal of the signal peptide, transforming the 65 kDa pre-pro-heparanase into a 60 kDa pro-heparanase; made in house
T2 sequence (Q9Y251 36-543): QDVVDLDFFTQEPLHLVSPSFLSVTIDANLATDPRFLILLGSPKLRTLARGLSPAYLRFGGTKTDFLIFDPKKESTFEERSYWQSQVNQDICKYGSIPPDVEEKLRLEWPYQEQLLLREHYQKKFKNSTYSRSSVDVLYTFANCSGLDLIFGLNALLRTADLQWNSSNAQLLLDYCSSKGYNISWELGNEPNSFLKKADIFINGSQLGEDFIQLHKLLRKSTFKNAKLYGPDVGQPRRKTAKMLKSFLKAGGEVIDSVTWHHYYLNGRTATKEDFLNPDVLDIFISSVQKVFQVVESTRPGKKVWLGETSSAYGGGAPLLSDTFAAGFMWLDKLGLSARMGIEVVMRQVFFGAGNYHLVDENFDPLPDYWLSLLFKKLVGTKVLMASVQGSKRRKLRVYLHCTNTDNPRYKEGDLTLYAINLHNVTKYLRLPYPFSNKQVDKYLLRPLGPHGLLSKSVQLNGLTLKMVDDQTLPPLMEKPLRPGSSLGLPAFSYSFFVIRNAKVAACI
Experimental: Pro-heparanase (H60) activation in a cell-based assay: Chinese hamster ovary (CHO) cells were grown in complete F12 medium supplemented with 10% fetal calf serum (FCS). […] The plates were incubated for 24 hours in a 37° C. humidified incubator with 5% CO2. […] The plates were further incubated for additional 4 hours. The pro-heparanase was allowed to internalize by the cells and further processed to generate the active 53 kDa heparanase. At the end of the incubation, the cells were lysed by three consecutive cycles of freezing and thawing in a −80° C. freezer and a 37° C. shaker.
The rigidified compounds described herein were tested for inhibition of pro-heparanase activation in the cell-based assay described above.

β-FGF = β-FGF (Homo sapiens, UniProt P09038); assay: ELISA for determination of binding of β-FGF to heparin; settings: for IC50: inhibition of β-FGF binding to heparin, NI = no inhibition; for inhibition of β-FGF binding to heparin: inhibition towards both growth factors
Experimental: ELISA for determination of binding of β-FGF to heparin: 96-well microplates were coated for 2 hours at 23-25° C. with 5 μg/ml heparin-albumin (Rimon Biotech) and blocked with 1% BSA in PBS, with 0.05% Tween, and 0.01% thimerosal for 2 hours. β-FGF was added to the plates at a concentration of 10 ng/ml and plates were incubated for 45 minutes at 23-25° C. The amount of β-FGF bound to heparin was detected using anti-FGF monoclonal antibody (Sigma Cat. No. F6162) at a concentration of 2.5 ng/ml and secondary antibodies Sheep anti-mouse IgG linked to horseradish peroxidase (1:3000) TMB (Pierce Cat. No. 34021) was used as a substrate for peroxidase. The plates were read at 450 nm with a reference wavelength of 630 nm using a VERSAmax plate reader.

[3] = tested on: MDA-MB231 breast cancer cells; assay: In-vitro assay for inhibition of cell invasion (MDA-MB231); assay type: cell-based; settings: Homo sapiens; MB231 cells (first value of cell); read-out: IC50 Invasion MB231/PC3/A375
Experimental: (§1) In-vitro assay for inhibition of cell invasion: The ability of the rigidified compounds described herein to inhibit cell invasion was determined quantitatively using BD Biocoat FluoroBlok Invasion System (BD, cat No. FAL354165). MDA-MB231 breast cancer cells, human prostatic cancer PC3 cells and A375 melanoma cells were used for this assay. Cells (5×10^4 cells/ml) were pre-incubated with the compounds for 48 hours prior to the assay, at 37° C. and a 5% CO2 atmosphere.
(§2) Serial dilutions of each compound starting from a concentration which was previously found to be non-toxic to the cells (using Oxygen Biosensor System, BD), were prepared in DMSO and added to the cells to a final concentration of 1% DMSO. At the end of the pre-incubation, cells at each compound concentration were counted and 2×10^4 cells/well in basic medium were applied onto the top chamber of the insert of the Invasion system. 750 μl complete medium with 5% fetal calf serum was added to the bottom chambers. The tested compound was applied to the top and bottom chambers. Invasion plates were incubated for 22 hours at 37° C. and a 5% CO2 atmosphere.
At the end of the incubation, medium was aspirated from the upper chambers and the inserts were transferred to a plate containing Calcein AM (Molecular Probes), 4 μg/ml and incubated for 90 minutes at 37° C. and a 5% CO2 atmosphere.
(§3) Fluorescence of invaded cells was read in a fluorescence plate reader BMG POLARstar Galaxy, BMG at excitation/emission wavelength of 485/530 nm.

heparanase (H53) = molecular target: T3, heparanase (H53) (Homo sapiens, UniProt Q9Y251); assay: Heparanase (H53) assay (DMB assay); assay type: biochemical; settings: for dual activity: inhibition of pro-heparanase activation (H60) and of heparanase activity (H53): compounds with an acidic group; for IC50: inhibition of heparanase activity, DMB assay, NI = no inhibition
T3 construct: The 45 kDa major subunit and the 8 kDa small subunit hetero-complex to form the 53 kDa active form of heparanase
T3 sequence (Q9Y251 36-109 limits assumed): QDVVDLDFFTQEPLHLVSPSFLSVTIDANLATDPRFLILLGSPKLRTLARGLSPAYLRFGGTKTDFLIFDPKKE
T3 sequence (Q9Y251 158-543 limits assumed): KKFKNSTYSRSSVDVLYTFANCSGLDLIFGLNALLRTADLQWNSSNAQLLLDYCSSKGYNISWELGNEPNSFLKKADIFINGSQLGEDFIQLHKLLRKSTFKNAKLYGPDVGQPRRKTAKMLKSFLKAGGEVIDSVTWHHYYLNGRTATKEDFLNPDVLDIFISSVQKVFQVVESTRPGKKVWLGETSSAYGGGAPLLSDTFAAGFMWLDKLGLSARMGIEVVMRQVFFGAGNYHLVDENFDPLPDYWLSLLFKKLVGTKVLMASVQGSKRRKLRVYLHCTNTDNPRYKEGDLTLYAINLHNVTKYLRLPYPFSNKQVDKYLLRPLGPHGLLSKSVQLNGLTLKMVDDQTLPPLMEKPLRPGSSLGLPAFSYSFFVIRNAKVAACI
Experimental: Heparanase (H53) assay: The rigidified compounds described herein were tested for inhibition of heparanase activity in the DMB assay described in U.S. Pat. No. 6,190,875. IC50 was calculated from inhibition curves of all active compounds.

[4] = tested on: human prostatic cancer PC3 cells; assay: In-vitro assay for inhibition of cell invasion (PC3); assay type: cell-based; settings: PC-3, PC3 cells (second value of cell), read-out: IC50 Invasion MB231/PC3/A375
Experimental: as §1
as §2, with “atmosphere. […]” for “atmosphere.”
as §3

A375 melanoma cells = assay: In-vitro assay for inhibition of cell invasion (A375); assay type: cell-based; settings: Homo sapiens, A-375; A375 cells (third value of cell); read-out: IC50 Invasion MB231/PC3/A375
Experimental: as §1
as §2, with “atmosphere. […]” for “atmosphere.”
as §3

Chain of β-FGF (P09038 143-288): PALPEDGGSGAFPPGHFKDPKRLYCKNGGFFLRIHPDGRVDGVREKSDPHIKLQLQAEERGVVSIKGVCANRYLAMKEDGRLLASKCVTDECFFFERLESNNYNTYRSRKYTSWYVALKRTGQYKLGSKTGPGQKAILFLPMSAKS

Question: Which results are given for `O=C(O)CCCN1C(=O)c2cc3oc(-c4ccc([N+](=O)[O-])cc4)cc3n2C1=S` [Compound 2, 4-[2-(4-nitro-phenyl)-6-oxo-4-thioxo-6H-1-oxa-3b,5-diaza-cyclopenta[a]pentalen-5-yl]-butyric acid]?
Answer: IC50 [1]: 1.8 µM; IC50 [2]: 1 µM; IC50 (β-FGF): 1.7 µM; IC50 [3]: 2.6 µM; dual activity: inhibition of pro-heparanase activation (H60) and of heparanase activity (H53) (heparanase (H53)): dual activity; IC50 (heparanase (H53)): 9 µM

Question: Which IC50 [1] does the source give for `CCN(CC)C(=O)CCCN1C(=O)c2cc3oc(-c4ccc(Cl)cc4)cc3n2C1=S` [Compound 6, 4-[2-(4-chloro-phenyl)-6-oxo-4-thioxo-6H-1-oxa-3b,5-diaza-cyclopenta[a]pentalen-5-yl]-N,N-diethyl-butyramide] here?
Answer: The IC50 was 0.16 µM.

Question: And the “inhibition of VEGF binding to heparin” value [1]?
Answer: Its value is “sub-micromolar”.

Question: What about the IC50 [2] of the same compound?
Answer: The IC50 was 1.2 µM.

Question: And the IC50 (β-FGF)?
Answer: The IC50 was 0.15 µM.

Question: What about the “inhibition of β-FGF binding to heparin” value (β-FGF) of the same compound?
Answer: The value was “sub-micromolar”.

Question: What about the IC50 [3] of the same compound?
Answer: The IC50 was 0.17 µM.

Question: For `CC(C)(CC(=O)O)CN1C(=O)c2cc3oc(-c4ccc(Cl)cc4)cc3n2C1=S` [Compound 11, 4-[2-(4-chloro-phenyl)-6-oxo-4-thioxo-6H-1-oxa-3b,5-diaza-cyclopenta[a]pentalen-5-yl]-3,3-dimethyl-butyric acid], which IC50 [1] is on record?
Answer: Its IC50 is 1.2 µM.

Question: And the IC50 [2]?
Answer: The IC50 was 0.27 µM.

Question: What about the IC50 (β-FGF) of the same compound?
Answer: The IC50 was 1.8 µM.

Question: What about the IC50 [4] of the same compound?
Answer: Its IC50 is 1.4 µM.

Question: What about the IC50 [3] of the same compound?
Answer: Its IC50 is 0.75 µM.

Question: What about the “dual activity: inhibition of pro-heparanase activation (H60) and of heparanase activity (H53)” value (heparanase (H53)) of the same compound?
Answer: The value was “dual activity”.

Question: What about the IC50 (heparanase (H53)) of the same compound?
Answer: Its IC50 is 37 µM.

Question: Which results are given for `CN1CCN(C(=O)CC(C)(C)CN2C(=O)c3cc4oc(-c5ccc(Cl)cc5)cc4n3C2=S)CC1` [Compound 16, 2-(4-Chloro-phenyl)-5-[2,2-dimethyl-4-(4-methyl-piperazin-1-yl)-4-oxo-butyl]-4-thioxo-4,5-dihydro-1-oxa-3b,5-diaza-cyclopenta[a]pentalen-6-one]?
Answer: IC50 [1]: 0.29 µM; inhibition of VEGF binding to heparin [1]: sub-micromolar; IC50 [2]: 0.09 µM; IC50 (β-FGF): 0.2 µM; inhibition of β-FGF binding to heparin (β-FGF): sub-micromolar; IC50 [3]: 0.035 µM

Question: For `CC(C)(CC(=O)N1CCC[C@H]1C(=O)O)CN1C(=O)c2cc3oc(-c4ccc(Cl)cc4)cc3n2C1=S` [Compound 22, 1-{4-[2-(4-Chloro-phenyl)-6-oxo-4-thioxo-6H-1-oxa-3b,5-diaza-cyclopenta[a]pentalen-5-yl]-3,3-dimethyl-butyryl}-pyrrolidine-2-carboxylic acid], which IC50 [1] is on record?
Answer: The IC50 was 2.4 µM.

Question: What about the IC50 [2] of the same compound?
Answer: The IC50 was 0.23 µM.

Question: What about the IC50 (A375 melanoma cells) of the same compound?
Answer: Its IC50 is 2 µM.

Question: What about the IC50 (β-FGF) of the same compound?
Answer: The IC50 was 2.8 µM.

Question: And the IC50 [4]?
Answer: Its IC50 is 0.05 µM.

Question: And the IC50 [3]?
Answer: The IC50 was 0.022 µM.

Question: What about the “dual activity: inhibition of pro-heparanase activation (H60) and of heparanase activity (H53)” value (heparanase (H53)) of the same compound?
Answer: The value was “dual activity”.

Question: What about the IC50 (heparanase (H53)) of the same compound?
Answer: Its IC50 is 34.8 µM.
